According to publication PMC7803973, “Structural basis of malaria parasite phenylalanine tRNA-synthetase inhibition by bicyclic azetidines” (Nature Communications, 2021):
“And” between values parts separate entries of the source, which are not always exact repeats. Equal values may be shown once.

How the values were obtained:
[1] = system: N[C@@H](Cc1ccccc1)C(=O)O; assay: Kinetic parameter (Km) determination, malachite green; format: biochemical, Plasmodium falciparum; conditions: other: PfcFRS mutant (L550V); ATP saturating 500 μM; pH 7.5; 37.0 °C
Procedure: (§1) In both cases the reaction was carried out for 2 h at 37 °C. Data were fitted to Michaelis–Menten equations using Prism graph 6.0 software.

[2] = system: PfcFRS mutant (L550V); assay: as above; format: biochemical, Plasmodium falciparum; conditions: PfcFRS-L550V versus PfcFRS WT
Procedure: as §1

[3] = system: parasite; parameters: method as in PMID 27602946; conditions: increasing concentrations of L-Phe; cited from earlier work
[4] = system: Plasmodium falciparum strain 3D7; assay: Parasite growth inhibition (drug susceptibility test, pLDH readout); format: cell-based; conditions: 3D7; for IC50: Plasmodium falciparum
Procedure: (§2) The cultivation of P. falciparum was conducted according to Trager’s method with some modification. Precisely, parasites were kept in culture flasks with RPMI1640 medium supplemented with 10% human plasma and 2% fresh human erythrocytes and incubated at 37 °C with the gas condition of 5% CO2 and 5% O2. The parasitemia (percentage of infected erythrocytes to total erythrocytes) were kept within 0.25–10%. Culture medium was replaced, and fresh erythrocytes were supplied every 2–3 days. Drug susceptibility test was conducted according to Desjardins’s method[18] with some modification. […] […] The plates were kept at 37 °C with the gas condition of 5% CO2 and 5% O2 for 72 h and then parasite growth was quantified with Makler’s method to detect plasmdoial lactate dehydrogenase[19] with some modification. Precisely, culture plates were kept in freezer overnight and then thawed at 37 °C to disrupt the erythrocytes and parasite cells. In the new 96-well titer plates, 100 μl of enzyme reaction solution (110 mM Li-lactate, 0.5 mM acetylpyridine-adenine dinucleotide, 50 mM Tris (pH 7.5), 10 mM EDTA, 50 mM KCl, and 15 g l^−1 PEG6000) and 20 µl of freeze-thaw culture were mixed in each well and then kept at room temperature for 30 min. The detection solution was prepared by mixing equal volume of 2 mg ml^−1 nitro blue tetrazolium and 0.1 mg ml^−1 phenazine ethosulfate and 20 µl of the solution was added to each well.

[5] = system: Plasmodium falciparum strain K1; assay: microbe, parasite or virus in culture; format: cell-based; conditions: K1; for IC50: Plasmodium falciparum
Procedure: as §2

[6] = substrate: N[C@@H](Cc1ccccc1)C(=O)O; assay: Kinetic parameter (Km) determination, malachite green; format: biochemical, Plasmodium falciparum; conditions: other: PfcFRS WT; ATP saturating 500 μM; pH 7.5; 37.0 °C
Procedure: as §1

[7] = molecular target: the molecule itself; assay: crystal structure; PvcFRS with BRD1389 and Mg2+, space group P2(1)2(1)2, one αβ heterodimer per asymmetric unit, 3.0 Å
[8] = molecular target: the molecule itself; assay: SEC; purified PvcFRS on a Superdex 200 analytical gel filtration column

PfcFRS mutant (L550V) (Plasmodium falciparum 3D7; L550V)
Km [1]: 1.85 ± 0.84 µM

N[C@@H](Cc1ccccc1)C(=O)O [L-Phe, L-phenylalanine]
increase in Km value for L-Phe, mutant vs WT [2]: 10 fold and ~ 10 fold

COc1ccc(NC(=O)N2CCCCN3[C@H](CN)[C@H](c4ccc(C#Cc5ccccc5)cc4)[C@@H]3C2)cc1 [BRD1095]
EC50 shift with L-Phe [3]: higher EC50 values with increasing concentrations of L-Phe

C[C@@H]1CC[C@H]2[C@@H](C)C(=O)O[C@@H]3O[C@@]4(C)CC[C@@H]1[C@]32OO4 [Artemisinin, artemisinin]
% Parasite Growth ([4]; 0.000195313 ug/mL): 91.8%
% Parasite Growth ([4]; 0.000390625 ug/mL): 88.1%
% Parasite Growth ([4]; 0.00078125 ug/mL): 90.1%
% Parasite Growth ([4]; 0.0015625 ug/mL): 91.8%
% Parasite Growth ([4]; 0.003125 ug/mL): 91.0%
% Parasite Growth ([4]; 0.00625 ug/mL): 92.6%
% Parasite Growth ([4]; 0.0125 ug/mL): 61.0%
% Parasite Growth ([4]; 0.025 ug/mL): 3.0%
% Parasite Growth ([4]; 0.05 ug/mL): 2.5%
% Parasite Growth ([4]; 0.1 ug/mL): 2.3%
% Parasite Growth ([4]; 0.2 ug/mL): 2.8%
IC50 [4]: 0.0143 µg/mL and 50.5 nM
% Parasite Growth ([5]; 0.000195313 ug/mL): 95.0%
% Parasite Growth ([5]; 0.000390625 ug/mL): 92.3%
% Parasite Growth ([5]; 0.00078125 ug/mL): 92.8%
% Parasite Growth ([5]; 0.0015625 ug/mL): 94.4%
% Parasite Growth ([5]; 0.003125 ug/mL): 92.0%
% Parasite Growth ([5]; 0.00625 ug/mL): 76.5%
% Parasite Growth ([5]; 0.0125 ug/mL): 6.1%
% Parasite Growth ([5]; 0.025 ug/mL): 2.9%
% Parasite Growth ([5]; 0.05 ug/mL): 3.5%
% Parasite Growth ([5]; 0.1 ug/mL): 3.3%
% Parasite Growth ([5]; 0.2 ug/mL): 3.6%
IC50 [5]: 0.00811 µg/mL and 28.7 nM

CCN(CC)CCCC(C)Nc1ccnc2cc(Cl)ccc12 (centres unmarked) [Chloroquine, chloroquine]
IC50 [4]: 0.00914 µg/mL and 17.7 nM
IC50 [5]: 0.139 µg/mL and 269 nM

B1: PfcFRS wild type (WT) (Plasmodium falciparum 3D7) (protein)
chain: MSTNNVEEKKNEELYNLLNILEEEFNLSKIENKNNNKNDDGDDDDVNKREDNNNNEYYKKLKDEKGLDVLINEYTTSLKISKKYNIDHNKVMGMIKKLETLYYIINLIKSFNTYHLSDEGKQYLKEGSPEFIVIKYVIQNNKCTLEDLKKNLGKIGDIGLNTNLKNRTIQLNKADKCLTCNCNLHDIQDFTQIYLDIINQYGHDEELLFAHLKNKNHTKNALNNNEMKNSCKDNNIINNLIQDLKKRKLLEIKKNSYSHVIKTSIFKKDIKKQITDINYLLLKNEEYKKYDIKKYNFFSSGKKINKGNIHLLTKQMRTFKEIFFSLGFEEMETHNYVESSFWCFDALYIPQQHPSRDLQDTFFIKEPETCIDKFVDTEYIDNIKRVHTHGDYGSFGWNYKWKLEESKKNVLRTHTTANSCRALFKLAKEYKEAGCIKPKKYFSIDRVFRNENLDSTHLAEFHQVEGLIIDKNIGLSHLIGTLAAFYKHIGIHKLKFKPTFNPYTEPSMEIYGYHEQSKKWLEVGNSGIFRPEMLRSMGFSEEVSVIAWGLSLERPTMIKYNIKNIRDLFGYKSVV
Km [6]: 0.25 ± 0.017 µM

B2: PvcFRS αβ heterodimer as in the crystal (alpha subunit without residues 1-270) (complex, Plasmodium vivax)
chain 1: LTYLLIKNEEYKKYQVKKYNFFSSGKKMNKGNIHLLIRQMRTFKDVFVSLGFEEMNTHNYVESSFWCFDALYIPQQHPSRDLQDTFFIKVPEMCQEEFTDQSYIENVKRVHSVGDYGSFGWNYQWELKSTKKNVLRTHTTANSCRALFQLAKEYQKTGSIIPKKFFSIDRVFRNENLDSTHLAEFHQVEGLIIDRNLGLSHLIGTLSAFYKYIGISKLRFKPTFNPYTEPSMEVYGYHEENKKWLEVGNSGIFRPEMLRAMGFPPEVSVIAWGLSLERPTMIKYSIRNIRDLFGYRSVI
chain 2: MPTISVHEEDLIEKLGEKIEEEKLNDICFEFGIEIDDVEYKGEKKIYKIEVPANRYDLVCVEGLCRALKSFIGKYENVSYALLTNSEEACVKEKHFMRVDESVDERRSYVVSAVLKNVKMNENVYNNIIELQEKLHHNLGKKRILLAIGIHDYDKINFPVAYKFEEKEKINFIPLNETQNVNGNNFINFYQDNINLKSYLKIISDFEKFPVIVDAGGQILSLPPIINCDYTKITYDTRNLFIECTAIDRNKAEIAVNIICSMLSEYCTPKYSIHSFFVQYDKNHKAEKGNGYLYPVFKNKTLTCHMDYVRKLSGILNLSVKDVEPLLKKMMITSKVIDSSTFTVDVPFYRSDIMHFCDIVEDIAIAYGYGNIVSEKIEIAKKNSLSACTELFRNVLAECTYTEVMTNALLSKRENYDCMLRKHRSYDDRKINLDEYNPLAPPVQIMNSKTSEYEIVRTSLIVNMLKFVSANKHRELPLRFFEIGDVSYTTYDRTDTNAVNKRYLSVIFADKFTAGLEEAHGMLETVLKEFQLFSDYKIEEKSKENVAIRSDVFYKLVPKEDPSFLNERVVDIVLCPHNLKFGIMGIIHPKVLENFSIDIPVSVIEINIETIMDVLMM
notes: PvcFRS alpha subunit, Plasmodium vivax, gene PVX_081300; N-terminal domain (residues 1-270) absent in the crystal; PvcFRS beta subunit, Plasmodium vivax, gene PVX_090880, full length; also called heterodimer (αβ); PvcFRS-BRD1389 complex; source: E. coli B834, both subunits co-expressed, purified (Ni-NTA, heparin); crystallised with BRD1389 and MgCl2
binding result [7]: binds

B3: PvcFRS αβ heterodimer (full-length subunits) (complex, Plasmodium vivax)
chain 1: MQAKAQEEQKGEELSQFLQALEEEFALCQEGGGDKREADGPSLENAEAEELANRRAYYLQLKEERNVLVEESKHVTSLHMSSKHNIEHAKVLGMAKKLETLYYVVNHVRSFNTYQLTEEGKEYLRDGSPEHVTLRYVMEQEGCTLEDLKKLFGKKGEIGLNINLKKKKIELRKSDKRLFPHVEGSAHSLVDETRCYLQKVEAHGNDEGALVSHLKGILPPEKGEKKEEDEANNLIKELKKRKLIEAKKISYIYIIRTNLFTKEIKKQITDLTYLLIKNEEYKKYQVKKYNFFSSGKKMNKGNIHLLIRQMRTFKDVFVSLGFEEMNTHNYVESSFWCFDALYIPQQHPSRDLQDTFFIKVPEMCQEEFTDQSYIENVKRVHSVGDYGSFGWNYQWELKSTKKNVLRTHTTANSCRALFQLAKEYQKTGSIIPKKFFSIDRVFRNENLDSTHLAEFHQVEGLIIDRNLGLSHLIGTLSAFYKYIGISKLRFKPTFNPYTEPSMEVYGYHEENKKWLEVGNSGIFRPEMLRAMGFPPEVSVIAWGLSLERPTMIKYSIRNIRDLFGYRSVI
chain 2: MPTISVHEEDLIEKLGEKIEEEKLNDICFEFGIEIDDVEYKGEKKIYKIEVPANRYDLVCVEGLCRALKSFIGKYENVSYALLTNSEEACVKEKHFMRVDESVDERRSYVVSAVLKNVKMNENVYNNIIELQEKLHHNLGKKRILLAIGIHDYDKINFPVAYKFEEKEKINFIPLNETQNVNGNNFINFYQDNINLKSYLKIISDFEKFPVIVDAGGQILSLPPIINCDYTKITYDTRNLFIECTAIDRNKAEIAVNIICSMLSEYCTPKYSIHSFFVQYDKNHKAEKGNGYLYPVFKNKTLTCHMDYVRKLSGILNLSVKDVEPLLKKMMITSKVIDSSTFTVDVPFYRSDIMHFCDIVEDIAIAYGYGNIVSEKIEIAKKNSLSACTELFRNVLAECTYTEVMTNALLSKRENYDCMLRKHRSYDDRKINLDEYNPLAPPVQIMNSKTSEYEIVRTSLIVNMLKFVSANKHRELPLRFFEIGDVSYTTYDRTDTNAVNKRYLSVIFADKFTAGLEEAHGMLETVLKEFQLFSDYKIEEKSKENVAIRSDVFYKLVPKEDPSFLNERVVDIVLCPHNLKFGIMGIIHPKVLENFSIDIPVSVIEINIETIMDVLMM
notes: PvcFRS alpha subunit, Plasmodium vivax, gene PVX_081300, full length; PvcFRS beta subunit, Plasmodium vivax, gene PVX_090880, full length; The heterodimer that pairs with itself to the (αβ)2 heterotetramer in solution; also called heterodimer (αβ); source: E. coli B834, both subunits co-expressed, purified (Ni-NTA, heparin)
stoichiometry N [8]: 2
